# ChEMBL document CHEMBL1136106, “Synthesis and biological activities of 1-pyridylisoquinoline and 1-pyridyldihydroisoquinoline derivatives as PDE4 inhibitors” (Bioorg Med Chem Lett, 2003)
# Biological target: T1, Phosphodiesterase 4 (Homo sapiens, UniProt P27815+Q08499+Q07343+Q08493)
# Assay: Inhibition of phosphodiesterase 4
# Assay type: protein assay
# Settings: not given
row,IC50,Compound
1,2 nM,COc1cc2c(cc1OC)C(c1ccnc(-n3nc(Cc4cccnc4)c4ccccc4c3=O)c1)=N[C@H](CO)C2.Cl
2,0.6 nM,COc1cc2cc(CO)nc(-c3ccnc(-n4nc(-c5cccnc5)c5ccccc5c4=O)c3)c2cc1OC.Cl
3,70 nM,COc1cc2nc(CO)c(CO)c(-c3ccnc(-n4nc(-c5cccnc5)c5ccccc5c4=O)c3)c2cc1OC.Cl
4,1 nM,COc1cc2c(cc1OC)C(c1ccnc(-n3nc(-c4cccnc4)c4ccccc4c3=O)c1)=N[C@H](CO)C2.Cl
5,3 nM,COc1cc2c(cc1OC)C(c1ccnc(-n3nc(-c4cncnc4)c4ccccc4c3=O)c1)=N[C@H](CO)C2.Cl

# Second part, the compound before the results:
row,Compound,IC50
1,COc1cc2cc(CO)nc(-c3ccnc(-n4nc(-c5cccs5)c5ccccc5c4=O)c3)c2cc1OC.Cl,0.3 nM
2,COc1cc2c(cc1OC)C(c1ccnc(-n3ccc4c(OCc5cccnc5)cccc4c3=O)c1)=N[C@H](CO)C2.Cl,0.4 nM
3,COc1cc2c(cc1OC)C(c1ccnc(-n3ccc4c(OCCN5CCOCC5)cccc4c3=O)c1)=N[C@H](CO)C2.Cl,0.5 nM
4,COc1cc2cc(CO)c(CO)c(-c3ccnc(-n4nc(-c5cccnc5)c5ccccc5c4=O)c3)c2cc1OC.Cl,0.7 nM
5,COc1cc2cc(CO)nc(-c3ccnc(-n4nc(-c5nccs5)c5ccccc5c4=O)c3)c2cc1OC.Cl,0.3 nM

# Biological target: T1, Phosphodiesterase 4
# Assay: Inhibition of rolipram binding to phosphodiesterase 4
# Assay type: protein assay
# Settings: not given
row,Ki,Compound
1,3.1 nM,COc1cc2c(cc1OC)C(c1ccnc(-n3nc(Cc4cccnc4)c4ccccc4c3=O)c1)=N[C@H](CO)C2.Cl
2,1.4 nM,COc1cc2cc(CO)nc(-c3ccnc(-n4nc(-c5cccnc5)c5ccccc5c4=O)c3)c2cc1OC.Cl
3,120 nM,COc1cc2nc(CO)c(CO)c(-c3ccnc(-n4nc(-c5cccnc5)c5ccccc5c4=O)c3)c2cc1OC.Cl
4,6.5 nM,COc1cc2c(cc1OC)C(c1ccnc(-n3nc(-c4cccnc4)c4ccccc4c3=O)c1)=N[C@H](CO)C2.Cl
5,3 nM,COc1cc2cc(CO)cc(-c3ccnc(-n4nc(-c5cccnc5)c5ccccc5c4=O)c3)c2cc1OC.Cl
6,5.4 nM,COc1cc2c(cc1OC)C(c1ccnc(-n3nc(-c4cncnc4)c4ccccc4c3=O)c1)=N[C@H](CO)C2.Cl

# The next lines start with the compound.
row,Compound,Ki
1,COc1cc2cc(CO)nc(-c3ccnc(-n4nc(-c5cccs5)c5ccccc5c4=O)c3)c2cc1OC.Cl,1.4 nM
2,COc1cc2c(cc1OC)C(c1ccnc(-n3ccc4c(OCc5cccnc5)cccc4c3=O)c1)=N[C@H](CO)C2.Cl,1.5 nM
3,COc1cc2c(cc1OC)C(c1ccnc(-n3ccc4c(OCCN5CCOCC5)cccc4c3=O)c1)=N[C@H](CO)C2.Cl,1.8 nM
4,COc1cc2cc(CO)nc(-c3ccnc(-n4nc(-c5nccs5)c5ccccc5c4=O)c3)c2cc1OC.Cl,1.7 nM

# Species on record: Mus musculus
# Assay: Inhibition of LPS-induced TNF-alpha production in mice after 30 min peroral dose
# Assay type: functional
# Settings: po, 0.5 h
row,Compound,ED50
1,COc1cc2cc(CO)nc(-c3ccnc(-n4nc(-c5cccs5)c5ccccc5c4=O)c3)c2cc1OC.Cl,1.6 mg/kg
2,COc1cc2c(cc1OC)C(c1ccnc(-n3ccc4c(OCc5cccnc5)cccc4c3=O)c1)=N[C@H](CO)C2.Cl,2.4 mg/kg
3,COc1ccc(C2CNC(=O)C2)cc1OC1CCCC1 (stereo not drawn) [ROLIPRAM],2.6 mg/kg
4,COc1cc2c(cc1OC)C(c1ccnc(-n3ccc4c(OCCN5CCOCC5)cccc4c3=O)c1)=N[C@H](CO)C2.Cl,0.13 mg/kg
5,COc1cc2cc(CO)c(CO)c(-c3ccnc(-n4nc(-c5cccnc5)c5ccccc5c4=O)c3)c2cc1OC.Cl,1.2 mg/kg
6,COc1cc2cc(CO)nc(-c3ccnc(-n4nc(-c5nccs5)c5ccccc5c4=O)c3)c2cc1OC.Cl,0.26 mg/kg
7,COc1ccc(C(=O)Nc2c(Cl)cncc2Cl)cc1OC1CCCC1,0.72 mg/kg
8,COc1cc2c(cc1OC)C(c1ccnc(-n3nc(-c4cccnc4)c4ccccc4c3=O)c1)=N[C@H](CO)C2.Cl,0.52 mg/kg
